# Test results reported in US20240335431A1, “1-H-PYRROLO[2,3-c]PYRIDINE COMPOUNDS” (Acerta Pharma B.V., priority 2023, published 2024).
# Key:
# [1] = Caco-2 cell monolayers intrinsic permeation assay in the presence of efflux inhibitors; format: in vitro ADME; conditions: Caco-2, with efflux inhibitors
# Outline: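 Caco-2 monolayers grown 14–18 days on Transwells; compound dosed apically in HBSS with efflux inhibitors (Zosuquidar, Benzbromarone, KO-143), inhibitors also basolateral, 37 °C with shaking. Sampled at 0, 45 and 120 min, analysed by LC/MS/MS; apical-to-basolateral Papp (cm/s) calculated.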
# HEL cells = assay: Proliferation assay, HEL control cell line (CellTiter-Glo, 7 days); format: cell-based, human; conditions: Homo sapiens, HEL, 168 h
# Outline: (§1)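 Cells seeded at 125 (MOLM-13), 300 (MV4;11), 75 (OCI-AML3) or 200 (HEL) per well were exposed to 3.16-fold compound dilutions (0.1% DMSO) for 7 days at 37° C. Viability by CellTiter-Glo luminescence, normalized to DMSO (100%) and day-0 plate (0%); IC50 from one-site dose-response fit.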
# MV4;11 cells = assay: Proliferation assay, MV4;11 (CellTiter-Glo, 7 days); format: cell-based, human; conditions: Homo sapiens, MV4-11, 168 h, read-out: MV-4-11 IC50
# Outline: as §1
Papp A→B [1] [×10⁻⁶ cm/s],IC50 (MV4;11 cells) [nM],SMILES,IC50 (HEL cells) [nM]
4,40,"Cc1c(C(=O)C2CCN(C(=O)[C@H]3NC[C@@H]4C[C@@H]43)CC2)c2ccncc2n1-c1ccc(F)cc1-c1cnccc1C(C)C [Example 54, (1-((1S,2S,5R)-3-Azabicyclo[3.1.0]hexane-2-carbonyl)piperidin-4-yl)(1-(4-fluoro-2-(4-isopropylpyridin-3-yl)phenyl)-2-methyl-1H-pyrrolo[2,3-c]pyridin-3-yl)methanone]",> 10000
1,65,"CC(C)N(C(=O)c1cc(F)ccc1-n1cc(C(=O)C2CCN(C(=O)[C@H]3N[C@@H]4CC[C@H]3C4)CC2)c2c(F)cncc21)C(C)C.O=CO [Example 44, 2-(3-(1-((1R,3S,4S)-2-Azabicyclo[2.2.1]heptane-3-carbonyl)piperidine-4-carbonyl)-4-fluoro-1H-pyrrolo[2,3-c]pyridin-1-yl)-5-fluoro-N,N-diisopropylbenzamide 1·formic acid]",> 10000
1.7,27,"CC(C)N(C(=O)c1cc(F)ccc1-n1cc(C(=O)C2CCN(C(=O)[C@H]3NC[C@@H]4CCC[C@@H]43)CC2)c2ccncc21)C(C)C [Example 21, 5-Fluoro-N,N-diisopropyl-2-(3-(1-((1S,3αR,6αS)-octahydrocyclopenta[c]pyrrole-1-carbonyl)piperidine-4-carbonyl)-1H-pyrrolo[2,3-c]pyridin-1-yl)benzamide]",> 10000
0.2,39,"C[C@@H]1COC[C@@H](C)N1C(=O)c1cc(F)ccc1-n1cc(C(=O)C2CCN(C(=O)[C@H]3N[C@@H]4CC[C@H]3C4)CC2)c2ccncc21 [Example 34, (1-((1R,3S,4S)-2-Azabicyclo[2.2.1]heptane-3-carbonyl)piperidin-4-yl)(1-(2-((3R,5R)-3,5-dimethylmorpholine-4-carbonyl)-4-fluorophenyl)-1H-pyrrolo[2,3-c]pyridin-3-yl)methanone]",> 10000
2.2,72,"CC(C)N(C(=O)c1cc(F)ccc1-n1cc(C(=O)C2CN(C(=O)[C@H]3N[C@H]4C[C@@H]3[C@@H](F)C4)C2)c2ccncc21)C(C)C [Example 7, 5-Fluoro-2-(3-(1-((1S,3S,4S,5S)-5-fluoro-2-azabicyclo[2.2.1]heptane-3-carbonyl)azetidine-3-carbonyl)-1H-pyrrolo[2,3-c]pyridin-1-yl)-N,N-diisopropylbenzamide]",> 10000
0.3,99,"CC(C)N(C(=O)c1cc(F)ccc1-n1cc(C(=O)[C@@H]2CCN(C(=O)[C@H]3N[C@@H]4CC[C@H]3C4)C2)c2ccncc21)C(C)C [Example 3, 2-(3-((R)-1-((1R,3S,4S)-2-Azabicyclo[2.2.1]heptane-3-carbonyl)pyrrolidine-3-carbonyl)-1H-pyrrolo[2,3-c]pyridin-1-yl)-5-fluoro-N,N-diisopropylbenzamide]",> 10000
0.6,43,"CC(C)n1nccc1-c1cc(F)ccc1-n1cc(C(=O)C2CCN(C(=O)[C@H]3N[C@@H]4CC[C@H]3C4)CC2)c2ccncc21 [Example 36, (1-((1R,3S,4S)-2-Azabicyclo[2.2.1]heptane-3-carbonyl)piperidin-4-yl)(1-(4-fluoro-2-(1-isopropyl-1H-pyrazol-5-yl)phenyl)-1H-pyrrolo[2,3-c]pyridin-3-yl)methanone]",> 10000
